# Measured values: article PMC7730235, “Discovery of a Novel Class of Covalent Dual Inhibitors Targeting the Protein Kinases BMX and BTK” (International Journal of Molecular Sciences, 2020)
# Assays:
# glutathione (GSH) = experiment: Glutathione reactivity / stability against GSH; type: physicochemical; settings: glutathione (GSH) in PBS buffer, pH 7.4, 5 mM GSH, read-out: half-life (t1/2) against glutathione (converted)
# Method: A total of 5 µL of a 10 mM compound stock solution in DMSO were added to 5 µL of a 4 mM Indoprofen solution in PBS as internal standard. The mixture was diluted with PBS buffer to a total volume of 1 mL of component A. Additionally, a freshly prepared solution of 10 mM GSH in PBS buffer was used as component B. A total of 250 µL of each component was mixed and immediately subjected to HPLC analysis for t^0 measurement. The probes were stored at 40 °C in between the respective injections. t1/2 was determined by plotting natural logarithm of AUC/AUC0 against time.
# BLK = molecular target: T1, BLK (Homo sapiens, UniProt P51451); experiment: Radiometric kinase assay (Reaction Biology HotSpot); type: biochemical; settings: radiometric HotSpot, five-dose singlicate, [ATP] = 10 μM
# T1 construct: purchased Reaction Biology Corporation
# Method: (§1) If not mentioned differently, in vitro profiling of compounds was performed at Reaction Biology Corporation using the HotSpot™ assay platform.
# TXK = molecular target: T2, TXK (Homo sapiens, UniProt P42681); experiment: as above; type: biochemical; settings: radiometric HotSpot, five-dose singlicate, [ATP] = 10 μM
# T2 construct: purchased Reaction Biology Corporation
# T2 sequence (P42681 1-527): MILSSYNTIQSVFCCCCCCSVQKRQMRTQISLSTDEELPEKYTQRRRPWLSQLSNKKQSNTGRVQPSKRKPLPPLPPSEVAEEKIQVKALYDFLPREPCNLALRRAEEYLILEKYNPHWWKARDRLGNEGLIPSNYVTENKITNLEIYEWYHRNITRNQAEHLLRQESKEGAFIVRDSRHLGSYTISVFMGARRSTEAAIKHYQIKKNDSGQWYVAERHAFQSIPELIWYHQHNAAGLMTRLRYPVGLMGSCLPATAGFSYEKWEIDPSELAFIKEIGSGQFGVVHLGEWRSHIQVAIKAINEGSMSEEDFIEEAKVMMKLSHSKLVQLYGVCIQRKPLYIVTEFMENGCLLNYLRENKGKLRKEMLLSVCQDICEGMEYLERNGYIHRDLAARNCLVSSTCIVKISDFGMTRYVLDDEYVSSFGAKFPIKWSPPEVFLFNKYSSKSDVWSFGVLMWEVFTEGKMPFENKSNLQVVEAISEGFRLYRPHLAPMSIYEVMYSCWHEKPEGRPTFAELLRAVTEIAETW
# Method: as §1
# HER2 = molecular target: T3, HER2 (Homo sapiens, UniProt P04626); experiment: as above; type: biochemical; settings: radiometric HotSpot, five-dose singlicate, [ATP] = 10 μM
# T3 construct: purchased Reaction Biology Corporation
# Method: as §1
# MKK7 = molecular target: T4, MKK7 (Homo sapiens, UniProt O14733); experiment: as above; type: biochemical; settings: read-out: Residual Activity @ 200 nM, MKK7
# T4 construct: purchased Reaction Biology Corporation
# T4 sequence (O14733 1-419): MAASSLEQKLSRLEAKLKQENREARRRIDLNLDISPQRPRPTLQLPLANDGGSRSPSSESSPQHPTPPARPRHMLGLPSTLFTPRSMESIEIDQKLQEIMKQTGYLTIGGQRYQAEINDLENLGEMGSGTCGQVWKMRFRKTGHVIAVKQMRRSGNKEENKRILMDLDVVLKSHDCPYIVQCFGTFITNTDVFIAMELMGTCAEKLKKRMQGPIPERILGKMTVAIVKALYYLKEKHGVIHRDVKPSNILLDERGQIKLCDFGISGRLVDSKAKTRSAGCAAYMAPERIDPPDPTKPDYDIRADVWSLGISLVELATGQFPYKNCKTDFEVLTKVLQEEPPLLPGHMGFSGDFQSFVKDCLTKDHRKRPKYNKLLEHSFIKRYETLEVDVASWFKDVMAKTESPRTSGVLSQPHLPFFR
# Method: as §1
# JAK3 = molecular target: T5, JAK3 (Homo sapiens, UniProt P52333); experiment: as above; type: biochemical
# T5 construct: purchased Reaction Biology Corporation
# T5 sequence (P52333 1-1124): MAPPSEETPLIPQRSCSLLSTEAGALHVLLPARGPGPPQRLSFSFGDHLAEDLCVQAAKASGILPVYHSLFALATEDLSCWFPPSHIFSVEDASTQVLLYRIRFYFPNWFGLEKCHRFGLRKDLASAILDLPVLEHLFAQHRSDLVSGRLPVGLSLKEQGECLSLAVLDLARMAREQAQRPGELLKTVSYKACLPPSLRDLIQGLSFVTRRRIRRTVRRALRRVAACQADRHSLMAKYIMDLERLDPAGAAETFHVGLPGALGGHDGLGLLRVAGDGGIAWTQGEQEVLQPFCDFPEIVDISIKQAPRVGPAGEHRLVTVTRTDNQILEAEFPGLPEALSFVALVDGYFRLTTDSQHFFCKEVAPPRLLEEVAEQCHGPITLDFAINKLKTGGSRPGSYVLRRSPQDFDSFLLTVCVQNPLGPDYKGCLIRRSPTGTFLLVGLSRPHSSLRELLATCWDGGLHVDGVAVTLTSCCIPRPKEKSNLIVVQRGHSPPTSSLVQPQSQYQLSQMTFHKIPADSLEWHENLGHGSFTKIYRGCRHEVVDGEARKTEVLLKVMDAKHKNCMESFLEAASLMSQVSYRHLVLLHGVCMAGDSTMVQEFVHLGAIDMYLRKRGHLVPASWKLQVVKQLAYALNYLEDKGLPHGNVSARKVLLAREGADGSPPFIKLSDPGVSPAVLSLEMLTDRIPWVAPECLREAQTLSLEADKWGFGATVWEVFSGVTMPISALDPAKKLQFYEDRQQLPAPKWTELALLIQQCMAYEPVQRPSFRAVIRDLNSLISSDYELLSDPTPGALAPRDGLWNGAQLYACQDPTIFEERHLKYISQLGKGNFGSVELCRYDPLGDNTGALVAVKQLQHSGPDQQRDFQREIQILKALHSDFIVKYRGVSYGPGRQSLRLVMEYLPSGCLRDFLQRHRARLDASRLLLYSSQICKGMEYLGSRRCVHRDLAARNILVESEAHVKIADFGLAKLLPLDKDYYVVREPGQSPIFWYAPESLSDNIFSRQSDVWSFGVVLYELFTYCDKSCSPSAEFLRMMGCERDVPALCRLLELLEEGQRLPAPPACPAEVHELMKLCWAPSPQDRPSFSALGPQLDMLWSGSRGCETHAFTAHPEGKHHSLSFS
# Method: as §1
# EGFR = molecular target: T6, EGFR (Homo sapiens, UniProt P00533); experiment: as above; type: biochemical; settings: radiometric HotSpot, five-dose singlicate, [ATP] = 10 μM
# T6 construct: purchased Reaction Biology Corporation
# Method: as §1
# HER4 = molecular target: T7, HER4 (Homo sapiens, UniProt Q15303); experiment: as above; type: biochemical; settings: radiometric HotSpot, five-dose singlicate, [ATP] = 10 μM
# T7 construct: purchased Reaction Biology Corporation
# Method: as §1
# ITK = molecular target: T8, ITK (Homo sapiens, UniProt Q08881); experiment: as above; type: biochemical; settings: read-out: Residual Activity @ 200 nM, ITK
# T8 construct: purchased Reaction Biology Corporation
# T8 sequence (Q08881 1-620): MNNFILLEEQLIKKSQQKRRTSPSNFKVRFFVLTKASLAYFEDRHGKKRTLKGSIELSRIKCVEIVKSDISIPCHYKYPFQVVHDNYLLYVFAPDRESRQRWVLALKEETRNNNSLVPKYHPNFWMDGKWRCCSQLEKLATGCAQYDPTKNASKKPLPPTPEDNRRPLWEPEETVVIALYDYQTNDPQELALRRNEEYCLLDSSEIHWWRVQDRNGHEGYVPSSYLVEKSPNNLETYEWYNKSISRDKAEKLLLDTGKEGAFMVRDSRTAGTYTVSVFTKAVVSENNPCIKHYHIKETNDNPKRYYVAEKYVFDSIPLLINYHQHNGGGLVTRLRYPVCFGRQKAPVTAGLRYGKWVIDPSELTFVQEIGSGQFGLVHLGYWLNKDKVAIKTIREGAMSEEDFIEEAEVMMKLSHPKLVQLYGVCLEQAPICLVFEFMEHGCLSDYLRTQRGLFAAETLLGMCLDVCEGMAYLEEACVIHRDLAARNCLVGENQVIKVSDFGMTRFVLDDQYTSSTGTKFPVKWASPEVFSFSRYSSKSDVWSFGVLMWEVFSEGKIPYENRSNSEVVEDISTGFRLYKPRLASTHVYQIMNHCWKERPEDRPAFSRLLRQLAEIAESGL
# Method: as §1
# TEC = molecular target: T9, TEC (Homo sapiens, UniProt P42680); experiment: as above; type: biochemical; settings: radiometric HotSpot, five-dose singlicate, [ATP] = 10 μM
# T9 construct: purchased Reaction Biology Corporation
# T9 sequence (P42680 1-631): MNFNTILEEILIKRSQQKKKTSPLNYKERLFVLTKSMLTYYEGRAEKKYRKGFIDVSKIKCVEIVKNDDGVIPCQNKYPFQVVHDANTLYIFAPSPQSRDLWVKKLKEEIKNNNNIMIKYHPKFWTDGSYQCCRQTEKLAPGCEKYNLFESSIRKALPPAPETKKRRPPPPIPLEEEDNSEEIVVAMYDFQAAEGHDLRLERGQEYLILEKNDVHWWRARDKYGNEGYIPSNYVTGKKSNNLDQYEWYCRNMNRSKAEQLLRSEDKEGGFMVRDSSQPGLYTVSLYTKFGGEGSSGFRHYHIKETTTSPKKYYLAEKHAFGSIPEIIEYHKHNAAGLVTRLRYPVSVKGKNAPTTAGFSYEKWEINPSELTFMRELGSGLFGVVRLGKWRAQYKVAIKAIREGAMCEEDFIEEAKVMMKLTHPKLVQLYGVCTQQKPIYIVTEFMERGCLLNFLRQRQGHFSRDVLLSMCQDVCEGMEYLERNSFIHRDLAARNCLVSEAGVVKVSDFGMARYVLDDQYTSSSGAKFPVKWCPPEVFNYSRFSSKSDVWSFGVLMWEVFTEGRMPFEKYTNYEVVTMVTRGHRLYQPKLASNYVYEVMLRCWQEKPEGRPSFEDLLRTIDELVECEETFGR
# Method: as §1
# BMX = molecular target: T10, BMX (Homo sapiens, UniProt P51813); settings: cited from earlier work
# T10 construct: purchased Reaction Biology Corporation
# T10 sequence (P51813 1-675): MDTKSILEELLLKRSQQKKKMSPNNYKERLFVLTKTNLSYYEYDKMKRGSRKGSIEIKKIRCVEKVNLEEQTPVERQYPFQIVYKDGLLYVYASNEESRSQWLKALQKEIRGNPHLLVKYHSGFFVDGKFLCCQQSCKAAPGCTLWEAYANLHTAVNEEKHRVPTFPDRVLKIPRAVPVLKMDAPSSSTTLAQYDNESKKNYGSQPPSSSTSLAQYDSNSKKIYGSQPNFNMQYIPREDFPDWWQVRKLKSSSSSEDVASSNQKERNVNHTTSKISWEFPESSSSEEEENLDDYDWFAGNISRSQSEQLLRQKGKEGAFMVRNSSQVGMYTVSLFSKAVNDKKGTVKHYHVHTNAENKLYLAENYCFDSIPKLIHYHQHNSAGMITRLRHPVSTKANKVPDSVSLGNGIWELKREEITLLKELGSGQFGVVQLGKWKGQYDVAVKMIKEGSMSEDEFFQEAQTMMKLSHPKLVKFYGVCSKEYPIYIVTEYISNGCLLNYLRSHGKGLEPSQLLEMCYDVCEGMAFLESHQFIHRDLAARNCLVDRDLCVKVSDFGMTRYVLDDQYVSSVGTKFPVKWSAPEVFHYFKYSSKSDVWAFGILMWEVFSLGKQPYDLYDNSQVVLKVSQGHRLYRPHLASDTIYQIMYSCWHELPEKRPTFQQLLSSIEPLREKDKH
# T6 sequence (P00533 25-1210): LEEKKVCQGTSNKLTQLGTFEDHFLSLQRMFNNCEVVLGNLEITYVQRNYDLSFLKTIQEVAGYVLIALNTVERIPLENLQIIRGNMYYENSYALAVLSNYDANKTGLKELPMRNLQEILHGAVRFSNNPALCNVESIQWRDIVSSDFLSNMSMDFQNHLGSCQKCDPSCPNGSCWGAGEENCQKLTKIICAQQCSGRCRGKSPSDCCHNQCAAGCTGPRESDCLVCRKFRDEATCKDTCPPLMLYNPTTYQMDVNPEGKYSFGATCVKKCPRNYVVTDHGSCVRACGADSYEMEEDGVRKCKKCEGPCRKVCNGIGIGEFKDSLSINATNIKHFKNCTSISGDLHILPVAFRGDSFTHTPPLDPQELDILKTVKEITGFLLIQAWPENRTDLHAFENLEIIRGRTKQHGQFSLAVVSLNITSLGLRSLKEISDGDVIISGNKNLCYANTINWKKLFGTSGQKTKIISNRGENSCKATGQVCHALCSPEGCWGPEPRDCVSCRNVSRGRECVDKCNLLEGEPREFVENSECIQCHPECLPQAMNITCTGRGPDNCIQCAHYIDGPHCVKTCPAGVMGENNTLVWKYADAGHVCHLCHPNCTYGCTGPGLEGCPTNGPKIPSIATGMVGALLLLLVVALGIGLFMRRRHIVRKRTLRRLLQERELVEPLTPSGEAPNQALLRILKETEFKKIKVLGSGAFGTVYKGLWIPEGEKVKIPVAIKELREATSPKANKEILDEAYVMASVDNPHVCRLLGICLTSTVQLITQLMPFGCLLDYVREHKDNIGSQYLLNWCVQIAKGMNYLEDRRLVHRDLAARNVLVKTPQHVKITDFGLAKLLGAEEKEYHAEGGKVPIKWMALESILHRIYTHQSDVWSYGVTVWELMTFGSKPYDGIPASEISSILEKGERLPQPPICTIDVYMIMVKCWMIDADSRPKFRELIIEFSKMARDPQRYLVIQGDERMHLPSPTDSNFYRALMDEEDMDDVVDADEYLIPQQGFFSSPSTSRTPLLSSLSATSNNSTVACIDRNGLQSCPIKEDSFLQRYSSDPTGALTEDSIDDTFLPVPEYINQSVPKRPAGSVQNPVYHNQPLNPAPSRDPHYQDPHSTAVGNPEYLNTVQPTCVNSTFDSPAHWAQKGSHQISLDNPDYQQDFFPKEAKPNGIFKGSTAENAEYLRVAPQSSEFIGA
# T1 sequence (P51451 whole entry): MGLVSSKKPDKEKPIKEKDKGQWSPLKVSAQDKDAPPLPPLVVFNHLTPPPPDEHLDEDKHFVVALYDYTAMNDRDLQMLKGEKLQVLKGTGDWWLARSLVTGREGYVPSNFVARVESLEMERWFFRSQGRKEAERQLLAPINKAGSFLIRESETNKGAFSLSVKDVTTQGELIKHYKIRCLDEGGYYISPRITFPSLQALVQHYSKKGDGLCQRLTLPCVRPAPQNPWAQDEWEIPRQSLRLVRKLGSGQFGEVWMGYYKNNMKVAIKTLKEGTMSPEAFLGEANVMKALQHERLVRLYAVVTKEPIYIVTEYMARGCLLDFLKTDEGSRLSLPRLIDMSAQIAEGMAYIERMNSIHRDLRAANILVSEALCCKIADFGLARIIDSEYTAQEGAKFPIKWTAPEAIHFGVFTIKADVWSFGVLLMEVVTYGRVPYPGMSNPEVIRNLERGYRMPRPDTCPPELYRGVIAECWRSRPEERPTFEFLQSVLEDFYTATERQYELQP
# T7 sequence (Q15303 26-1308): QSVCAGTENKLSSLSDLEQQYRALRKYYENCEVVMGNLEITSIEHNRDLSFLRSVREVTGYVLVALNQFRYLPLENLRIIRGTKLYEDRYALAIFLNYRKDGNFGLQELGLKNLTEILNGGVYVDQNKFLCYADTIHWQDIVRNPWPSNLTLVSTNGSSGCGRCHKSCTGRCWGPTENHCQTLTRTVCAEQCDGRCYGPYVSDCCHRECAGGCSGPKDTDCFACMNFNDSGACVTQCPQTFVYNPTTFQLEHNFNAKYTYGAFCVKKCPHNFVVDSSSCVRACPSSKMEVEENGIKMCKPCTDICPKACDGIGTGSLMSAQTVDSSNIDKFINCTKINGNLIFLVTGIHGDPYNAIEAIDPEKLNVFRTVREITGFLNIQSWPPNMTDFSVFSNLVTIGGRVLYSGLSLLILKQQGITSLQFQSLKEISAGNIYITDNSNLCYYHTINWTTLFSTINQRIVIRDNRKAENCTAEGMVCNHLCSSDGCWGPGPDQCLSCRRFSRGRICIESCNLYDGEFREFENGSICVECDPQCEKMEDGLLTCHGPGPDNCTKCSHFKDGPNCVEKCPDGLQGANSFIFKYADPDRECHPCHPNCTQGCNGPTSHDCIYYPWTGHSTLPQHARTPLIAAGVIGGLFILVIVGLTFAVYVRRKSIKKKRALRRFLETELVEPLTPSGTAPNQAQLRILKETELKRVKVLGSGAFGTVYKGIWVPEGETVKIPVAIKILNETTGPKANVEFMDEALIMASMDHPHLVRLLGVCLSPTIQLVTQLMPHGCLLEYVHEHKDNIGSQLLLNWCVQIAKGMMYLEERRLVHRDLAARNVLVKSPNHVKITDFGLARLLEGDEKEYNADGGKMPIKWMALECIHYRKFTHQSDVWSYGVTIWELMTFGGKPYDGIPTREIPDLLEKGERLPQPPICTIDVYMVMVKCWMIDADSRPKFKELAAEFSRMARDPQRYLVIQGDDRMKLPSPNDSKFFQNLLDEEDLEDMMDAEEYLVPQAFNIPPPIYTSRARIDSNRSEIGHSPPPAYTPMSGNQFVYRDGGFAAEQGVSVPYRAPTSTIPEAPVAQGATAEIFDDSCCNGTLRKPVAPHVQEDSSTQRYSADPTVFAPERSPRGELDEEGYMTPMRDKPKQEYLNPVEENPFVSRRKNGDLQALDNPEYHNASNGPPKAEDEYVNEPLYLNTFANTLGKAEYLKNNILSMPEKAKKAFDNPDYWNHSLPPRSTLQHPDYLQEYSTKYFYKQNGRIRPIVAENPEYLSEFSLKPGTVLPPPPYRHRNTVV
# T3 sequence (P04626 23-1255): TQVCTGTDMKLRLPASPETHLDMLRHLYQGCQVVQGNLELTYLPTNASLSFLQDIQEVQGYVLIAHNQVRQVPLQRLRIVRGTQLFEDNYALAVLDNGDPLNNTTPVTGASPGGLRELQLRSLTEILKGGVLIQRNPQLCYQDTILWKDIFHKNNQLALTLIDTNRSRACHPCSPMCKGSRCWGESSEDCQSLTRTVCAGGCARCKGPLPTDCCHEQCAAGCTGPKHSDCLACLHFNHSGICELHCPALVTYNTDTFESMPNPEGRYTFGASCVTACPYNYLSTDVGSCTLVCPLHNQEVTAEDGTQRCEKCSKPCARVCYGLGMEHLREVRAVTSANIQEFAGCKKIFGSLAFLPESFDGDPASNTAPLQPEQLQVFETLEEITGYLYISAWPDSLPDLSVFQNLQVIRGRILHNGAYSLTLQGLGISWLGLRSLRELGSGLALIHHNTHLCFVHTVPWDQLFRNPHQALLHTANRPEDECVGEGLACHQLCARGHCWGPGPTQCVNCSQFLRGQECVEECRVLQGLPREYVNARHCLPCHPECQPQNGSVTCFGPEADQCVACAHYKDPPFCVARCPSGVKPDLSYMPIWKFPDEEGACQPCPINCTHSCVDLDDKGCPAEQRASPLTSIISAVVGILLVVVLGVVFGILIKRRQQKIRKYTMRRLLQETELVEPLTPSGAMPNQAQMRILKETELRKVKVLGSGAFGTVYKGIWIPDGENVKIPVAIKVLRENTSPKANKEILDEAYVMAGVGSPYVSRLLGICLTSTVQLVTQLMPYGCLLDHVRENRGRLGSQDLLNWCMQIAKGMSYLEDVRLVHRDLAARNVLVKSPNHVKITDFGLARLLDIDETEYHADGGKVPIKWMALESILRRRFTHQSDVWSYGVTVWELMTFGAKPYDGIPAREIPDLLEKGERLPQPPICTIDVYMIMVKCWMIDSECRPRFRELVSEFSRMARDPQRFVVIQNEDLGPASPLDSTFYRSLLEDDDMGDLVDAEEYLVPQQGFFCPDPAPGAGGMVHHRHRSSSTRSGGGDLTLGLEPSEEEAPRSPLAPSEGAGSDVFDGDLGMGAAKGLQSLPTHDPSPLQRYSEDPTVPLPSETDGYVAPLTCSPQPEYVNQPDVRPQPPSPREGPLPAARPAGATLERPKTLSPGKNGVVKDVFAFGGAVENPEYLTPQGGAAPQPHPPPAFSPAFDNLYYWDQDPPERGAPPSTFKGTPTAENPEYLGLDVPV
structure (smiles),measurement,setting,value
"CN(C)C/C=C/C(=O)Nc1cc2c(Nc3ccc(F)c(Cl)c3)ncnc2cc1O[C@H]1CCOC1 [Afatinib, reference compound]",half-life at 25 µM,glutathione (GSH),45.6 min
"C=CC(=O)Nc1cccc(-c2c[nH]c3ncc(NC(=O)C4CCCC4)cc23)c1 [Compound 12a, N-(3-(3-acrylamidophenyl)-1H-pyrrolo[2,3-b]pyridin-5-yl)cyclopentanecarboxamide]",IC50,BLK,52 nM
same,IC50,TXK,13 nM
same,IC50,HER2,612 nM
same,remaining activity at 0.2 µM,MKK7,100%
same,IC50,"JAK3; radiometric HotSpot, five-dose singlicate, [ATP] = 10 μM",1340 nM
same,remaining activity at 0.2 µM,"JAK3; read-out: Residual Activity @ 200 nM, JAK3",94.5%
same,IC50,EGFR,158 nM
same,IC50,HER4,106 nM
same,remaining activity at 0.2 µM,ITK,98.5%
same,IC50,TEC,31 nM
C=CC(=O)Nc1cc(C)cc(-n2c(=O)ccc3cnc4cc(-c5ccc(NS(C)(=O)=O)cc5)ccc4c32)c1 [JS25],kinact/KI BMX,BMX,1.9e+07 M⁻¹ s⁻¹
